We go through 47 molecules from patent publication US11110103B2, “Inhibitors of glucocorticoid receptor” (ORIC Pharmaceuticals, Inc., priority 2015, dated 2021).

The target in the experiment is T1, GR (Homo sapiens, UniProt P04150).
T1 construct: expressed in transfected cells; host or cells: CHO-K1 (CHO-K1-GR-MMTV-Luc reporter cells)
T1 sequence (P04150 1-777): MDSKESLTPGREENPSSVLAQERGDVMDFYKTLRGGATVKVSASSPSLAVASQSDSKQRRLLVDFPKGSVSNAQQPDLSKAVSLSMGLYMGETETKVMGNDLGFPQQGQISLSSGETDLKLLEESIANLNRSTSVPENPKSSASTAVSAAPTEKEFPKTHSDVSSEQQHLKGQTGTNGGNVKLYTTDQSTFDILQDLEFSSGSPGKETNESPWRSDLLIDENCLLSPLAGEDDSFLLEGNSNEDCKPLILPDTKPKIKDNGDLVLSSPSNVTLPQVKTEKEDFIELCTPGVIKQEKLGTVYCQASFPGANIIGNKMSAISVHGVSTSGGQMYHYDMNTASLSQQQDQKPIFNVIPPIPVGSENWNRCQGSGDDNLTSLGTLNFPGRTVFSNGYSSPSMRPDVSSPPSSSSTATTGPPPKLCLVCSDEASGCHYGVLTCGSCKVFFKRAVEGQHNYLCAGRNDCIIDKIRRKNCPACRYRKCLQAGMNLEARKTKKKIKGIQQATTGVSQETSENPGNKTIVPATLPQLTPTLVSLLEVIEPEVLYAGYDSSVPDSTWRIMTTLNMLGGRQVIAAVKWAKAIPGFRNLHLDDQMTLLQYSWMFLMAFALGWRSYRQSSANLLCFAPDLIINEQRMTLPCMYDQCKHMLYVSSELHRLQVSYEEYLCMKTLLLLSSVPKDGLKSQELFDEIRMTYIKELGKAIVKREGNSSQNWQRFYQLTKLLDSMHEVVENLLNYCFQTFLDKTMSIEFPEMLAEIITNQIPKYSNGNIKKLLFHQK
Put plainly: In Vitro GR Luciferase Reporter Assay (antagonist assay). The experiment is classed as cell-based. As to conditions: CHO-K1-GR-MMTV-Luc reporter cells, 10 nM Dexamethasone, 18-24 hours. The method, then:
Cell Line: CHO-K1-GR-MMTV-Luc reporter cells
Culture Media: DMEM (with phenol red)+10% FBS
Assay Media: DMEM (without phenol red)+10% CSS
Culture CHO-K1-GR-MMTV-Luc reporter cells in 15 cm plates in Culture Media at conditions less than 90% confluence.
Prepare 200×DMSO 1:5 serial dilutions of control and test compounds in 96-well non-sterile V bottom plate in DMSO, 8 serial dilutions for each compound.
Add compounds: 5 ul of assay media diluted compounds were added to appropriate wells and followed a quick spin (1000 rpm, 10 sec) to bring media and cells to the bottom of plate. The plates were covered with SealMate film to avoid evaporation and placed in 37° C. incubator for approximately 18-24 hours.
Read plates: Equilibrate appropriate amount of Promega OneGlo luciferase reagent to room temperature. Remove the plates from incubator and add 25 uL of OneGlo reagent/well by multiple channel pipette and read the plates with Tecan F500 luminometer within 3 minutes.
The ability of the compounds disclosed herein to inhibit GR activity was quantified and the respective IC50 value was determined.

The term IC50 denotes the midpoint of a concentration-inhibition curve. A higher IC50 goes with weaker potency in that assay. For `CC#C[C@]1(O)CC[C@H]2[C@@H]3CCC4=CC(=O)CCC4=C3[C@@H](c3ccc(NS(=O)(=O)c4ccc(C)cc4)cc3)C[C@@]21C`, the IC50 was over 100 nM.
Next, `CC#C[C@]1(O)CC[C@H]2[C@@H]3CCC4=CC(=O)CCC4=C3[C@@H](c3cccc(C(C)O)c3)C[C@@]21C` (some centres unmarked): over 100 nM.
Molecule `CC#C[C@]1(O)CC[C@H]2[C@@H]3CCC4=CC(=O)CCC4=C3[C@@H](c3cccc(C4CC4)c3)C[C@@]21C` returned an IC50 of under 100 nM.
Next, `CC#C[C@]1(O)CC[C@H]2[C@@H]3CCC4=CC(=O)CCC4=C3[C@@H](c3cccc(CC)c3)C[C@@]21C`: under 100 nM.
Next, `CC#C[C@]1(O)CC[C@H]2[C@@H]3CCC4=CC(=O)CCC4=C3[C@@H](c3cccc(COC)c3)C[C@@]21C`: under 100 nM; `CC#C[C@]1(O)CC[C@H]2[C@@H]3CCC4=CC(=O)CCC4=C3[C@@H](c3cccc(OC(C)C)c3)C[C@@]21C`: over 100 nM; `CC#C[C@]1(O)CC[C@H]2[C@@H]3CCC4=CC(=O)CCC4=C3[C@@H](c3cccc(C(C)(C)C)c3)C[C@@]21C`: over 100 nM.
Next, `CC#C[C@]1(O)CC[C@H]2[C@@H]3CCC4=CC(=O)CCC4=C3[C@@H](c3ccc(C)c(F)c3)C[C@@]21C`: under 100 nM; `CC#C[C@]1(O)CC[C@H]2[C@@H]3CCC4=CC(=O)CCC4=C3[C@@H](c3ccc(C(C)C)c(OC)c3)C[C@@]21C`: under 100 nM; `CC#C[C@]1(O)CC[C@H]2[C@@H]3CCC4=CC(=O)CCC4=C3[C@@H](c3ccc(C)c(OC)c3)C[C@@]21C`: under 100 nM.
Consider `CC#C[C@]1(O)CC[C@H]2[C@@H]3CCC4=CC(=O)CCC4=C3[C@@H](c3ccc(C)c(N(C)C)c3)C[C@@]21C`, for which the IC50 is under 100 nM.
With `CC#C[C@]1(O)CC[C@H]2[C@@H]3CCC4=CC(=O)CCC4=C3[C@@H](c3ccc(OC)c(C(C)C)c3)C[C@@]21C` the figure was under 100 nM.
With `CC#C[C@]1(O)CC[C@H]2[C@@H]3CCC4=CC(=O)CCC4=C3[C@@H](c3ccc(C)c(N4CCC4)c3)C[C@@]21C` the figure was over 100 nM; with `CC#C[C@]1(O)CC[C@H]2[C@@H]3CCC4=CC(=O)CCC4=C3[C@@H](c3ccc(F)c(OC)c3)C[C@@]21C`, over 100 nM; with `CC#C[C@]1(O)CC[C@H]2[C@@H]3CCC4=CC(=O)CCC4=C3[C@@H](c3ccc(Cl)c(N(C)C)c3)C[C@@]21C`, over 100 nM.
With `CC#C[C@]1(O)CC[C@H]2[C@@H]3CCC4=CC(=O)CCC4=C3[C@@H](c3ccc(F)c(N(C)C)c3)C[C@@]21C` the figure was over 100 nM; with `CC#C[C@]1(O)CC[C@H]2[C@@H]3CCC4=CC(=O)CCC4=C3[C@@H](c3ccc(Cl)c(C4CC4)c3)C[C@@]21C`, over 100 nM.
`CC#C[C@]1(O)CC[C@H]2[C@@H]3CCC4=CC(=O)CCC4=C3[C@@H](c3c(F)cc(N4CCOCC4)cc3F)C[C@@]21C` yielded an IC50 of under 100 nM.
On to `CC#C[C@]1(O)CC[C@H]2[C@@H]3CCC4=CC(=O)CCC4=C3[C@@H](c3c(F)cc(N4CCCC4)cc3F)C[C@@]21C`, for which the IC50 is under 100 nM.
Next, `CC#C[C@]1(O)CC[C@H]2[C@@H]3CCC4=CC(=O)CCC4=C3[C@@H](c3c(F)cc(N(C)CC)cc3F)C[C@@]21C`: under 100 nM; `CC#C[C@]1(O)CC[C@H]2[C@@H]3CCC4=CC(=O)CCC4=C3[C@@H](c3cc(F)c(N(C)C)c(F)c3)C[C@@]21C`: under 100 nM.
The molecule `CC#C[C@]1(O)CC[C@H]2[C@@H]3CCC4=CC(=O)CCC4=C3[C@@H](c3c(F)cc(CC)cc3F)C[C@@]21C` showed an IC50 of under 100 nM.
`CC#C[C@]1(O)CC[C@H]2[C@@H]3CCC4=CC(=O)CCC4=C3[C@@H](c3cc(C)c(N(C)C)c(F)c3)C[C@@]21C` had an IC50 of under 100 nM.
Next, `CC#C[C@]1(O)CC[C@H]2[C@@H]3CCC4=CC(=O)CCC4=C3[C@@H](c3c(F)cc(C)cc3F)C[C@@]21C`: under 100 nM; `CC#C[C@]1(O)CC[C@H]2[C@@H]3CCC4=CC(=O)CCC4=C3[C@@H](c3cc(F)c(N(C)C)cc3F)C[C@@]21C`: under 100 nM; `CC#C[C@]1(O)CC[C@H]2[C@@H]3CCC4=CC(=O)CCC4=C3[C@@H](c3cc(F)c(OC)c(F)c3)C[C@@]21C`: under 100 nM.
Next, `CC#C[C@]1(O)CC[C@H]2[C@@H]3CCC4=CC(=O)CCC4=C3[C@@H](c3c(F)cc(OC)cc3F)C[C@@]21C`: under 100 nM; `CC#C[C@]1(OC(C)=O)CC[C@H]2[C@@H]3CCC4=CC(=O)CCC4=C3[C@@H](c3cc(F)c(C)c(F)c3)C[C@@]21C`: under 100 nM.
With `CC#C[C@]1(OC(=O)CC)CC[C@H]2[C@@H]3CCC4=CC(=O)CCC4=C3[C@@H](c3cc(F)c(C)c(F)c3)C[C@@]21C` the figure was over 100 nM; with `CC#C[C@]1(OC)CC[C@H]2[C@@H]3CCC4=CC(=O)CCC4=C3[C@@H](c3cc(F)c(C)c(F)c3)C[C@@]21C`, over 100 nM; with `CC#C[C@]1(O)CC[C@H]2[C@@H]3CCC4=CC(=O)CCC4=C3[C@@H](c3ccc4c(c3)OCCCO4)C[C@@]21C`, under 100 nM.
`CC#C[C@]1(O)[C@H](C)C[C@H]2[C@@H]3CCC4=CC(=O)CCC4=C3[C@@H](c3c(F)cc(N4CCOCC4)cc3F)C[C@@]21C` showed an IC50 of under 100 nM.
Take `CC#C[C@]1(O)[C@H](C)C[C@H]2[C@@H]3CCC4=CC(=O)CCC4=C3[C@@H](c3c(F)cc(N(C)C)cc3F)C[C@@]21C`: the IC50 was under 100 nM.
With `CC#C[C@]1(O)C2(CC2)C[C@H]2[C@@H]3CCC4=CC(=O)CCC4=C3[C@@H](c3ccc(S(=O)(=O)N(C)C)cc3)C[C@@]21C` the figure was under 100 nM.
Next, `CC#C[C@]1(O)[C@H](C)C[C@H]2[C@@H]3CCC4=CC(=O)CCC4=C3[C@@H](c3ccc(C)c(F)c3)C[C@@]21C`: under 100 nM; `CC#C[C@]1(O)[C@H](C)C[C@H]2[C@@H]3CCC4=CC(=O)CCC4=C3[C@@H](c3ccc(S(=O)(=O)N(C)C)cc3)C[C@@]21C`: under 100 nM; `CC#C[C@]1(O)C2(CC2)C[C@H]2[C@@H]3CCC4=CC(=O)CCC4=C3[C@@H](c3c(F)cc(N(C)C)cc3F)C[C@@]21C`: under 100 nM.
With `CC#C[C@]1(O)[C@H](C)C[C@H]2[C@@H]3CCC4=CC(=O)CCC4=C3[C@@H](c3c(F)cc(N4CCC4)cc3F)C[C@@]21C` the figure was under 100 nM; with `CC#C[C@]1(O)[C@H](C)C[C@H]2[C@@H]3CCC4=CC(=O)CCC4=C3[C@@H](c3cc(F)c(N(C)C)c(F)c3)C[C@@]21C`, under 100 nM; with `CC#C[C@]1(O)[C@H](CC)C[C@H]2[C@@H]3CCC4=CC(=O)CCC4=C3[C@@H](c3ccccc3)C[C@@]21C`, over 100 nM.
As for `CC#C[C@]1(O)[C@H](C)C[C@H]2[C@@H]3CCC4=CC(=O)CCC4=C3[C@@H](c3ccc(S(=O)(=O)C(C)(C)C)cc3)C[C@@]21C`, the IC50 is over 100 nM.
Next, `CC#C[C@]1(O)[C@H](C)C[C@H]2[C@@H]3CCC4=CC(=O)CCC4=C3[C@@H](c3cc(F)c(C)c(F)c3)C[C@@]21C`: over 100 nM.
With `[2H]C([2H])([2H])C#C[C@]1(O)CC[C@H]2[C@@H]3CCC4=CC(=O)CCC4=C3[C@@H](c3ccc4c(c3)OCCO4)C[C@@]21C` the figure was under 100 nM; with `CC#C[C@]1(O)CC[C@H]2[C@@H]3CCC4=CC(=O)CCC4=C3[C@@H](c3ccc(S(=O)(=O)N4CCCCC4)cc3)C[C@@]21C` [drawing 181], under 100 nM.
Next, `CC#C[C@]1(O)CC[C@H]2[C@@H]3CCC4=CC(=O)CCC4=C3[C@@H](c3ccc(S(=O)(=O)C(C)(C)C)cc3)C[C@@]21C` [drawing 182]: under 100 nM; `CC#C[C@]1(O)CC[C@H]2[C@@H]3CCC4=CC(=O)CCC4=C3[C@@H](c3cccc(C(C)C)c3)C[C@@]21C` [drawing 185]: under 100 nM.
Consider `CC#C[C@]1(O)CC[C@H]2[C@@H]3CCC4=CC(=O)CCC4=C3[C@@H](c3cccc(OCC)c3)C[C@@]21C` [drawing 186], for which the IC50 was under 100 nM.
